# Molecular target: T1, human LMPTP-A (Homo sapiens, UniProt P24666)
# T1 sequence (P24666 1-158): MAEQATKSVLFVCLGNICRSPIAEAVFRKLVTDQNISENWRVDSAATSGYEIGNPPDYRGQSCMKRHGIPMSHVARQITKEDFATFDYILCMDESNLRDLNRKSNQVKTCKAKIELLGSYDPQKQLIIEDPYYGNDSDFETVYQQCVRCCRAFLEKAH
# Assay: Enzyme Assay of Inhibition of LMPTP-A
# Type: biochemical
# Details: phosphatase assay, OMFP or pNPP substrate, 50 mM Bis-Tris pH 6.0, 37° C.
# Procedure: Phosphatase assays were performed in buffer containing 50 mM Bis-Tris, pH 6.0, 1 mM DTT and 0.01% Triton X-100 at 37° C. For assays conducted with 3-O-methylfluorescein phosphate (OMFP) as substrate, fluorescence was monitored continuously at λex=485 and λem=525 nm. For assays conducted with para-nitrophenylphosphate (pNPP) as substrate, the reaction was stopped by addition of 2× reaction volume of 1 M NaOH, and absorbance was measured at 405 nm. IC50 values of compounds disclosed herein were determined from plots of inhibitor concentration versus percentage of enzyme activity. For inhibitor selectivity assays, each PTP was incubated with either 0.4 mM OMFP or 5 mM pNPP in the presence of 40 μM compound or DMSO. […] For the inhibitor reversibility assay, 50 nM human LMPTP-A was pre-incubated with 10 μM of compound disclosed herein or DMSO for 5 min. The enzyme was diluted 100× in phosphatase assay buffer containing 0.4 mM OMFP and fluorescence was measured at the indicated time points.
row,SMILES,IC50
1,"COc1ccccc1-c1nc2c(N)ncn(Cc3c(Cl)cccc3Cl)c-2n1 [3-[(2,6-Dichlorophenyl)methyl]-8-(2-methoxyphenyl)-3-hydropurine-6-ylamine]",≤ 1000 nM
2,"Cc1ccccc1-c1nc2c(N)ncn(Cc3c(Cl)cccc3Cl)c-2n1 [3-[(2,6-Dichlorophenyl)methyl]-8-(2-methylphenyl)-3-hydropurine-6-ylamine]",≤ 1000 nM
3,"Nc1ncn(Cc2c(Cl)cccc2Cl)c2nc(CCc3ccccc3)nc1-2 [3-[(2,6-Dichlorophenyl)methyl]-8-(2-phenylethyl)-3-hydropurine-6-ylamine]",≤ 1000 nM
4,"Nc1ncn(Cc2c(Cl)cccc2Cl)c2nc(-c3cccs3)nc1-2 [3-[(2,6-Dichlorophenyl)methyl]-8-(2-thienyl)-3-hydropurine-6-ylamine]",≤ 1000 nM
5,"Nc1ncn(Cc2c(Cl)cccc2Cl)c2nc(-c3cccc(Cl)c3)nc1-2 [3-[(2,6-Dichlorophenyl)methyl]-8-(3-chlorophenyl)-3-hydropurine-6-ylamine]",≤ 1000 nM
6,"Nc1ncn(Cc2c(Cl)cccc2Cl)c2nc(-c3cccc(F)c3)nc1-2 [3-[(2,6-Dichlorophenyl)methyl]-8-(3-fluorophenyl)-3-hydropurine-6-ylamine]",≤ 1000 nM
7,"Nc1ncn(Cc2c(Cl)cccc2Cl)c2nc(-c3ccoc3)nc1-2 [3-[(2,6-Dichlorophenyl)methyl]-8-(3-furyl)-3-hydropurine-6-ylamine]",≤ 1000 nM
8,"COc1cccc(-c2nc3c(N)ncn(Cc4c(Cl)cccc4Cl)c-3n2)c1 [3-[(2,6-Dichlorophenyl)methyl]-8-(3-methoxyphenyl)-3-hydropurine-6-ylamine]",≤ 1000 nM
9,"Cc1cccc(-c2nc3c(N)ncn(Cc4c(Cl)cccc4Cl)c-3n2)c1 [3-[(2,6-Dichlorophenyl)methyl]-8-(3-methylphenyl)-3-hydropurine-6-ylamine]",≤ 1000 nM
10,"Nc1ncn(Cc2c(Cl)cccc2Cl)c2nc(-c3cccnc3)nc1-2 [3-[(2,6-Dichlorophenyl)methyl]-8-(3-pyridyl)-3-hydropurine-6-ylamine]",≤ 1000 nM
11,"Nc1ncn(Cc2c(Cl)cccc2Cl)c2nc(-c3ccsc3)nc1-2 [3-[(2,6-Dichlorophenyl)methyl]-8-(3-thienyl)-3-hydropurine-6-ylamine]",≤ 1000 nM
12,"Nc1ncn(Cc2c(Cl)cccc2Cl)c2nc(-c3cnccc3Cl)nc1-2 [3-[(2,6-Dichlorophenyl)methyl]-8-(4-chloro(3-pyridyl))-3-hydropurine-6-ylamine]",≤ 1000 nM
13,"Nc1ncn(Cc2c(Cl)cccc2Cl)c2nc(-c3ccc(Cl)cc3)nc1-2 [3-[(2,6-Dichlorophenyl)methyl]-8-(4-chlorophenyl)-3-hydropurine-6-ylamine]",≤ 1000 nM
14,"Nc1ncn(Cc2c(Cl)cccc2Cl)c2nc(-c3ccc(F)cc3)nc1-2 [3-[(2,6-Dichlorophenyl)methyl]-8-(4-fluorophenyl)-3-hydropurine-6-ylamine]",≤ 1000 nM
15,"COc1ccncc1-c1nc2c(N)ncn(Cc3c(Cl)cccc3Cl)c-2n1 [3-[(2,6-Dichlorophenyl)methyl]-8-(4-methoxy(3-pyridyl))-3-hydropurine-6-ylamine]",≤ 1000 nM
16,"COc1ccc(-c2nc3c(N)ncn(Cc4c(Cl)cccc4Cl)c-3n2)cc1 [3-[(2,6-Dichlorophenyl)methyl]-8-(4-methoxyphenyl)-3-hydropurine-6-ylamine]",≤ 1000 nM
17,"Cc1csc(-c2nc3c(N)ncn(Cc4c(Cl)cccc4Cl)c-3n2)c1 [3-[(2,6-Dichlorophenyl)methyl]-8-(4-methyl(2-thienyl))-3-hydropurine-6-ylamine]",≥ 20000 nM
18,"Cc1ccncc1-c1nc2c(N)ncn(Cc3c(Cl)cccc3Cl)c-2n1 [3-[(2,6-Dichlorophenyl)methyl]-8-(4-methyl(3-pyridyl))-3-hydropurine-6-ylamine]",≤ 1000 nM
19,"Cc1ccc(-c2nc3c(N)ncn(Cc4c(Cl)cccc4Cl)c-3n2)cc1 [3-[(2,6-Dichlorophenyl)methyl]-8-(4-methylphenyl)-3-hydropurine-6-ylamine]",≤ 1000 nM
20,"Nc1ncn(Cc2c(Cl)cccc2Cl)c2nc(C3CCNCC3)nc1-2 [3-[(2,6-Dichlorophenyl)methyl]-8-(4-piperidyl)-3-hydropurine-6-ylamine]",≤ 1000 nM
21,"Nc1ncn(Cc2c(Cl)cccc2Cl)c2nc(-c3ccncc3)nc1-2 [3-[(2,6-Dichlorophenyl)methyl]-8-(4-pyridyl)-3-hydropurine-6-ylamine]",≤ 1000 nM
22,"Cc1ccc(-c2nc3c(N)ncn(Cc4c(Cl)cccc4Cl)c-3n2)s1 [3-[(2,6-Dichlorophenyl)methyl]-8-(5-methyl(2-thienyl))-3-hydropurine-6-ylamine]",≤ 1000 nM
23,"Nc1ncn(Cc2c(Cl)cccc2Cl)c2nc(-c3cccc(Cl)n3)nc1-2 [3-[(2,6-Dichlorophenyl)methyl]-8-(6-chloro(2-pyridyl))-3-hydropurine-6-ylamine]",≤ 1000 nM
24,"COc1ccc(-c2nc3c(N)ncn(Cc4c(Cl)cccc4Cl)c-3n2)cn1 [3-[(2,6-Dichlorophenyl)methyl]-8-(6-methoxy(3-pyridyl))-3-hydropurine-6-ylamine]",≤ 1000 nM
25,"Nc1ncn(Cc2c(Cl)cccc2Cl)c2nc(C(c3ccccc3)c3ccccc3)nc1-2 [3-[(2,6-Dichlorophenyl)methyl]-8-(diphenylmethyl)-3-hydropurine-6-ylamine]",≤ 1000 nM
26,"CC(c1ccccc1)c1nc2c(N)ncn(Cc3c(Cl)cccc3Cl)c-2n1 (stereo not drawn) [3-[(2,6-Dichlorophenyl)methyl]-8-(phenylethyl)-3-hydropurine-6-ylamine]",≤ 1000 nM
27,"Nc1ncn(Cc2c(Cl)cccc2Cl)c2nc(Cc3ccc(Br)cc3)nc1-2 [3-[(2,6-Dichlorophenyl)methyl]-8-[(4-bromophenyl)methyl]-3-hydropurine-6-ylamine]",≤ 1000 nM
28,"Nc1ncn(Cc2c(Cl)cccc2Cl)c2nc(Cc3ccccc3)nc1-2 [3-[(2,6-Dichlorophenyl)methyl]-8-benzyl-3-hydropurine-6-ylamine]",≤ 1000 nM
29,"Nc1ncn(Cc2c(Cl)cccc2Cl)c2nc(Br)nc1-2 [3-[(2,6-Dichlorophenyl)methyl]-8-bromo-3-hydropurine-6-ylamine]",1000 to 20000 nM
30,"Nc1ncn(Cc2c(Cl)cccc2Cl)c2nc(Cl)nc1-2 [3-[(2,6-Dichlorophenyl)methyl]-8-chloro-3-hydropurine-6-ylamine]",≥ 20000 nM

# Now from value to molecule:
row,IC50,SMILES
1,≤ 1000 nM,"Nc1ncn(Cc2c(Cl)cccc2Cl)c2nc(C3CCC3)nc1-2 [3-[(2,6-Dichlorophenyl)methyl]-8-cyclobutyl-3-hydropurine-6-ylamine]"
2,≤ 1000 nM,"Nc1ncn(Cc2c(Cl)cccc2Cl)c2nc(C3=CCCCC3)nc1-2 [3-[(2,6-Dichlorophenyl)methyl]-8-cyclohex-1-enyl-3-hydropurine-6-ylamine]"
3,≤ 1000 nM,"Nc1ncn(Cc2c(Cl)cccc2Cl)c2nc(C3CCCCC3)nc1-2 [3-[(2,6-Dichlorophenyl)methyl]-8-cyclohexyl-3-hydropurine-6-ylamine]"
4,≤ 1000 nM,"CCCCCCc1nc2c(N)ncn(Cc3c(Cl)cccc3Cl)c-2n1 [3-[(2,6-Dichlorophenyl)methyl]-8-hexyl-3-hydropurine-6-ylamine]"
5,≤ 1000 nM,"Cc1nc2c(N)ncn(Cc3c(Cl)cccc3Cl)c-2n1 [3-[(2,6-Dichlorophenyl)methyl]-8-methyl-3-hydropurine-6-ylamine]"
6,≤ 1000 nM,"Nc1ncn(Cc2c(Cl)cccc2Cl)c2nc(-c3ccccc3)nc1-2 [3-[(2,6-Dichlorophenyl)methyl]-8-phenyl-3-hydropurine-6-ylamine]"
7,≤ 1000 nM,"CCCc1nc2c(N)ncn(Cc3c(Cl)cccc3Cl)c-2n1 [3-[(2,6-Dichlorophenyl)methyl]-8-propyl-3-hydropurine-6-ylamine]"
8,≥ 20000 nM,"Nc1ncn(Cc2c(Cl)cccc2Cl)c2nc(-c3cc[nH]n3)nc1-2 [3-[(2,6-Dichlorophenyl)methyl]-8-pyrazol-5-yl-3-hydropurine-6-ylamine]"
9,≤ 1000 nM,"Nc1ncn(Cc2c(Cl)cccc2Cl)c2nc(-c3ccc[nH]3)nc1-2 [3-[(2,6-Dichlorophenyl)methyl]-8-pyrrol-2-yl-3-hydropurine-6-ylamine]"
10,≥ 20000 nM,"Nc1ncn(Cc2c(Cl)cccc2Cl)c2nc(C(F)(F)C(F)(F)F)nc1-2 [3-[(2,6-dichlorophenyl)methyl]-8-(1,1,2,2,2-pentafluoroethyl)-3-hydropurine-6-ylamine]"
11,≤ 1000 nM,"Nc1ncn(Cc2c(Cl)cccc2Cl)c2nc(-c3ccc(F)c(F)c3F)nc1-2 [3-[(2,6-dichlorophenyl)methyl]-8-(2,3,4-trifluorophenyl)-3-hydropurine-6-ylamine]"
12,≤ 1000 nM,"Nc1ncn(Cc2c(Cl)cccc2Cl)c2nc(-c3cccc(F)c3F)nc1-2 [3-[(2,6-dichlorophenyl)methyl]-8-(2,3-difluorophenyl)-3-hydropurine-6-ylamine]"
13,≤ 1000 nM,"Nc1ncn(Cc2c(Cl)cccc2Cl)c2nc(-c3cc(F)c(F)cc3F)nc1-2 [3-[(2,6-dichlorophenyl)methyl]-8-(2,4,5-trifluorophenyl)-3-hydropurine-6-ylamine]"
14,≤ 1000 nM,"Nc1ncn(Cc2c(Cl)cccc2Cl)c2nc(-c3ccc(F)cc3F)nc1-2 [3-[(2,6-dichlorophenyl)methyl]-8-(2,4-difluorophenyl)-3-hydropurine-6-ylamine]"
15,≤ 1000 nM,"Nc1ncn(Cc2c(Cl)cccc2Cl)c2nc(-c3c(F)cccc3F)nc1-2 [3-[(2,6-dichlorophenyl)methyl]-8-(2,6-difluorophenyl)-3-hydropurine-6-ylamine]"
